The source made the active and inactive calls. The calls are words filed in the database; no cut-off is given here.
Columns and labels:
[1] = Selectivity index, ratio of IC50 for horse butyrylcholine esterase to IC50 for electric eel acetylcholine esterase
HT-29 [2] = assay: Cytotoxicity against human HT-29 cells at 10 uM by LDH release assay; type: cell-based; settings: ht-29, 10 µM
Acetylcholinesterase [3] = biological target: T1, Acetylcholinesterase (Electrophorus electricus, UniProt O42275); assay: Inhibition of electric eel acetylcholine esterase preincubated for 10 mins followed by the addition of […] as substrate measured after 5 mins by Ellman's method
Cholinesterase = Cholinesterase (Equus caballus, UniProt P81908); assay: Inhibition of horse butyrylcholine esterase preincubated for 10 mins followed by the addition of […] as substrate measured after 5 mins by Ellman's method
Acetylcholinesterase [4] = biological target: T1, Acetylcholinesterase; assay: Mixed inhibition of electric eel acetylcholine esterase using […] as substrate by Ellman's method
HT-29 [5] = assay: Cytotoxicity against human HT-29 cells assessed as LDH release at 100 uM after 24 hrs; type: cell-based; settings: ht-29, 24 h
Acetylcholinesterase [6] = biological target: T1, Acetylcholinesterase; assay: Non-competitive inhibition of electric eel acetylcholine esterase using […] as substrate by Ellman's method
[7] = Cytotoxicity against human HT-29 cells assessed as decrease in cell viability after 24 hrs by calcein-AM/propidium iodide based fluorescence analysis; settings: read-out: INH
Acetylcholinesterase [8] = biological target: Acetylcholinesterase (Homo sapiens, UniProt P22303)
Description: Inhibition of human acetylcholine esterase preincubated for 10 mins followed by the addition of 550 uM of acetylcholine iodide as substrate measured after 20 mins by Ellman's method

HT-29 [9] = assay: Cytotoxicity against human HT-29 cells at 10 times IC50 by LDH release assay; type: cell-based
[10] = biological target: Amyloid-beta precursor protein (Homo sapiens) (UniProt P05067); assay: Inhibition of Amyloid beta42 (unknown origin) self aggregation assessed as Abeta fibril formation at 50 uM for 24 hrs by ThT-based fluorometric assay
Chain of Amyloid-beta precursor protein (Homo sapiens) (P05067 whole entry): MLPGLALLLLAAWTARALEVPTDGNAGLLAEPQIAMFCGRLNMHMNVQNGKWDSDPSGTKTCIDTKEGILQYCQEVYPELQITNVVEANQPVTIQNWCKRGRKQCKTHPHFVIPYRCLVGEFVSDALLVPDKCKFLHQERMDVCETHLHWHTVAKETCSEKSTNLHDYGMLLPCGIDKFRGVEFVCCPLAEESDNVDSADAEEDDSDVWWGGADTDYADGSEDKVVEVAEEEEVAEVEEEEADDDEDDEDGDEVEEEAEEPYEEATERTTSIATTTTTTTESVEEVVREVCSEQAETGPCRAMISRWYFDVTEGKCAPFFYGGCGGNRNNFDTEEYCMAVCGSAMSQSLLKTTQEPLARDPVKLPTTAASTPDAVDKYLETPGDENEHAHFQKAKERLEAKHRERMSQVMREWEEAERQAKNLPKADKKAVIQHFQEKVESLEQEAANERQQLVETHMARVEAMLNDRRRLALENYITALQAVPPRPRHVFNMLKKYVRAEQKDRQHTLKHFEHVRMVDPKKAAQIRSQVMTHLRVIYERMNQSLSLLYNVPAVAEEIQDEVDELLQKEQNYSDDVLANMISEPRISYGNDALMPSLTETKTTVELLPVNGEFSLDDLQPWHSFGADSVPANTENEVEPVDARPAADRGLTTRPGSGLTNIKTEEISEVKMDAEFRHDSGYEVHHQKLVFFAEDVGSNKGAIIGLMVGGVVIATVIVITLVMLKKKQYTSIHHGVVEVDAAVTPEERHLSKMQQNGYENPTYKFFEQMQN

T1 sequence (O42275 whole entry): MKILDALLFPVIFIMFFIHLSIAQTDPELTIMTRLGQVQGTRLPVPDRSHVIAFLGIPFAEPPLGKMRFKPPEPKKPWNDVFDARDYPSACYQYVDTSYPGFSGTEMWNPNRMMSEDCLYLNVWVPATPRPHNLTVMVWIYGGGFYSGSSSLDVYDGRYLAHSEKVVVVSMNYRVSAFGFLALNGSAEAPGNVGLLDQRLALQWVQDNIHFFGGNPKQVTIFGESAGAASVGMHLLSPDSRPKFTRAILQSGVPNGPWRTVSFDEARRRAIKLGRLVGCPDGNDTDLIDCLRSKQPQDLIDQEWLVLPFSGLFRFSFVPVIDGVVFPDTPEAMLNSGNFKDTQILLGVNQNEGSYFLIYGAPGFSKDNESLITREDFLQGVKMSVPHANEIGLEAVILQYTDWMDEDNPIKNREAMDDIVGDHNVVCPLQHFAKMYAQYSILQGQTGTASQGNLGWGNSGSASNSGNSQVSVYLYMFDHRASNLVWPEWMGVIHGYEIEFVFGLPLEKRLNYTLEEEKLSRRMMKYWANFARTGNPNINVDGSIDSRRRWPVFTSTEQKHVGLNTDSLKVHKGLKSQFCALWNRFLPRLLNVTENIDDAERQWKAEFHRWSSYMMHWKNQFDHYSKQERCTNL
Chain of Cholinesterase (P81908 whole entry): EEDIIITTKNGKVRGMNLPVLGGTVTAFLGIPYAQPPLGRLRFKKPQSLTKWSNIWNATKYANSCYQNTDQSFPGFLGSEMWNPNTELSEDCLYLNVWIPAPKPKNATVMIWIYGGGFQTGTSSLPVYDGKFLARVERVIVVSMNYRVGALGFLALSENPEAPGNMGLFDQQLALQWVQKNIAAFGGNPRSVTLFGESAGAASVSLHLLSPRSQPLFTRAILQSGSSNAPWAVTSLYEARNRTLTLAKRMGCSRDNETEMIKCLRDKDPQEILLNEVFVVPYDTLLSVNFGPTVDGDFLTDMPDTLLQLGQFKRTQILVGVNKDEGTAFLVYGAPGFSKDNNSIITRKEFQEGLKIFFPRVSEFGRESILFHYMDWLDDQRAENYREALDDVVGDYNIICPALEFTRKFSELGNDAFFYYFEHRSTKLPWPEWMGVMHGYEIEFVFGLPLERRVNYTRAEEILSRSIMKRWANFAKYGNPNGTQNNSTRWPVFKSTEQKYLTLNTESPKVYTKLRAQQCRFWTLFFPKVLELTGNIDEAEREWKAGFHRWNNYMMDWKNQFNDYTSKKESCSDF
Chain of Acetylcholinesterase (Homo sapiens, UniProt P22303) (P22303 whole entry): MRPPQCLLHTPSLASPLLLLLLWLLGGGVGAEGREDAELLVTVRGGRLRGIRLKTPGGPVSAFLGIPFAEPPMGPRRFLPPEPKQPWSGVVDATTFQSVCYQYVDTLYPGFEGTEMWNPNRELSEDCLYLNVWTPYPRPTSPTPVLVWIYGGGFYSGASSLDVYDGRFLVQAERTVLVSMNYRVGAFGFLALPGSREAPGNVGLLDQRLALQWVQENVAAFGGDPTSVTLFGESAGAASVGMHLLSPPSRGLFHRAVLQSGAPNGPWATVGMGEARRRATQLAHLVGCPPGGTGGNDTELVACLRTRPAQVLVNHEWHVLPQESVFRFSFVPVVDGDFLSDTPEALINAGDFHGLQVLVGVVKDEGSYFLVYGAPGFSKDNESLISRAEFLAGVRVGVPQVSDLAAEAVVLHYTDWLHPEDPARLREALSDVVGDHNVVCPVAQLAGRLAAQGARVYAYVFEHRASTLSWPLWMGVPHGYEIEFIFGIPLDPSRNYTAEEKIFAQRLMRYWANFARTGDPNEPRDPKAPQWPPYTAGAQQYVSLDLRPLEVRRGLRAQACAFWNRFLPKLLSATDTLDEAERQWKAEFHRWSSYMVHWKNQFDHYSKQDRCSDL

COc1cccc(CCCCCCCCN2CCCC2)c1
Ratio IC50 [1]: 0.8 | Activity (HT-29 [2]): Non-toxic | IC50 (Acetylcholinesterase [3]): 19.6 µM | IC50 (Cholinesterase): 16.4 µM | Ki (Acetylcholinesterase [4]): 22.4 µM

COc1cccc(CCCCCCCCNCc2ccccc2OC)c1
Ratio IC50 [1]: 0.2 | Activity (HT-29 [2]): Non-toxic | IC50 (Acetylcholinesterase [3]): 17.2 µM | Activity (HT-29 [5]): Toxic | IC50 (Cholinesterase): 3.1 µM | Ki (Acetylcholinesterase [6]): 17 µM | cytotoxicity at 24 h [7]: 46.3%

CCN(CCCCCCCCc1cccc(OC)c1)Cc1ccccc1
Ratio IC50 [1]: 0.5 | Activity (HT-29 [2]): Non-toxic | IC50 (Acetylcholinesterase [3]): 16.1 µM | IC50 (Cholinesterase): 8 µM | Ki (Acetylcholinesterase [6]): 10.4 µM

COc1cccc(CCCCCCCCN2CCCC(OC(=O)N(C)C)C2)c1 (racemic)
Ratio IC50 [1]: 1.7 | Activity (HT-29 [2]): Non-toxic | IC50 (Acetylcholinesterase [3]): 14.3 µM | IC50 (Cholinesterase): 23.5 µM | Ki (Acetylcholinesterase [6]): 22.4 µM

COc1cccc(CCCCCCCCN2CCCC(OC(C)=O)C2)c1 (racemic)
Ratio IC50 [1]: 1.2 | Activity (HT-29 [2]): Non-toxic | IC50 (Acetylcholinesterase [3]): 16.1 µM | IC50 (Cholinesterase): 19 µM | Ki (Acetylcholinesterase [6]): 19 µM

CCN(CCCCCCCCc1cccc(OC)c1)Cc1ccccc1OC
Ratio IC50 [1]: 0.8 | IC50 (Acetylcholinesterase [8]): 5.65 µM | Activity (HT-29 [2]): Non-toxic | IC50 (Acetylcholinesterase [3]): 6.6 µM | Activity (HT-29 [9]): Toxic | Activity (HT-29 [5]): Toxic | IC50 (Cholinesterase): 5 µM | Ki (Acetylcholinesterase [6]): 24.4 µM | inhibition [10]: inactive

COc1cccc(CCCCCCCCN2CCC(OC(=O)N(C)C)C2)c1 (racemic)
Ratio IC50 [1]: 1.7 | Activity (HT-29 [2]): Non-toxic | IC50 (Acetylcholinesterase [3]): 13.7 µM | IC50 (Cholinesterase): 22.8 µM | Ki (Acetylcholinesterase [6]): 8.6 µM
